Experimental data taken from patent publication US11117892B2, “Pyrrolo-pyridine derivative compound, method for preparing same, and pharmaceutical composition containing same as active ingredient for prevention or treatment of protein kinase-related diseases” (DAEGU-GYEONGBUK MEDICAL INNOVATION FOUNDATION, priority 2017, dated 2021).

Tests used:
Experiment in all cases: scanMAX Kinase assay panel
Format in all cases: binding
Settings in all cases: read-out: % control
[1] = molecular target: ABL1(E255K)-phosphorylated (Homo sapiens (Human), UniProt P00519, E255K)
Protocol: (§1) DiscoverX Co. was asked to measure the enzyme (kinase) selectivity, and the experiment was performed using scanMAX™ Kinase assay panel.
(§2) (Example Compound−Positive Control)/(Negative Control−Positive Control)×100 [Equation 1]
(§3) Herein, the positive control indicates the compound showing the % control of 0%, and the negative control indicates DMSO showing the % control of 100%.

[2] = molecular target: ABL1(F317L)-nonphosphorylated (Homo sapiens (Human), UniProt P00519, F317L)
Protocol: as §1, §2, §3

[3] = molecular target: ABL1(M351T)-phosphorylated (Homo sapiens (Human), UniProt P00519, M351T)
Protocol: as §1, §2, §3

[4] = molecular target: ABL2 (Homo sapiens (Human), UniProt P42684)
Protocol: as §1, §2, §3

[5] = molecular target: ACVR1B (Homo sapiens (Human), UniProt P36896)
ACVR1B, sequence (P36896 24-505): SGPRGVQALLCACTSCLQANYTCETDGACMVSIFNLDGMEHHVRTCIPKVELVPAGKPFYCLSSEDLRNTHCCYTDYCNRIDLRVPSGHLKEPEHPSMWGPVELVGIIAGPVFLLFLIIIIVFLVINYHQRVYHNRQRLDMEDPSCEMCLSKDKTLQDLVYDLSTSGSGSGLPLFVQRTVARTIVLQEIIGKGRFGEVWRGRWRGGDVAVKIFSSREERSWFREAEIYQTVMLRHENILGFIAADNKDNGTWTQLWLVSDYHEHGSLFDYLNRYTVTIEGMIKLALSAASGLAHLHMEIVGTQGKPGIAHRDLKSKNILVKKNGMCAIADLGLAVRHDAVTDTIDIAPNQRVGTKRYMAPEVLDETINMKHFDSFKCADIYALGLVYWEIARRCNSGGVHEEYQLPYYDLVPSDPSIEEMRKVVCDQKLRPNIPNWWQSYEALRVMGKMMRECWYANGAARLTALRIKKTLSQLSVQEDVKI
Protocol: as §1, §2, §3

[6] = molecular target: BMPR1B (Homo sapiens (Human), UniProt O00238)
Protocol: as §1, §2, §3

[7] = molecular target: BMPR2 (Homo sapiens (Human), UniProt Q13873)
Protocol: as §1, §2, §3

[8] = molecular target: CAMK2B (Homo sapiens (Human), UniProt Q13554)
Protocol: as §1, §2, §3

[9] = molecular target: CAMKK2 (Homo sapiens (Human), UniProt Q96RR4)
CAMKK2, sequence (Q96RR4 whole entry): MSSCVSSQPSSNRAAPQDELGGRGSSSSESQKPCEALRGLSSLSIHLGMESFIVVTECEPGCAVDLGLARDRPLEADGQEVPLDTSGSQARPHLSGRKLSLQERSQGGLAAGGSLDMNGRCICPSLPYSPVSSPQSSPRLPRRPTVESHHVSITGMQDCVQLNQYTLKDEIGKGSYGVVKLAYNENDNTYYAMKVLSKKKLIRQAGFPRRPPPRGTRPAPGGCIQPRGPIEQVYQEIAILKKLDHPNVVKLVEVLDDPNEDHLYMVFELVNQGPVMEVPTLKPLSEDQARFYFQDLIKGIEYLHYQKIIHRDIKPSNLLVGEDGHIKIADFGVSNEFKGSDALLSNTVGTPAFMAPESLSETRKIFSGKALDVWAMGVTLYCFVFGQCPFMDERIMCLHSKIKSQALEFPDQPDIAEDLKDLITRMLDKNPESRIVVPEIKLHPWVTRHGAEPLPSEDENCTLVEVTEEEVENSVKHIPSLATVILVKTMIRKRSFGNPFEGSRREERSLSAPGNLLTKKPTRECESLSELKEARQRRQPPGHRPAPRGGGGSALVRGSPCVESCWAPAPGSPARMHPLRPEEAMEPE
Protocol: as §1, §2, §3

[10] = molecular target: CDK4-cyclinD1 (Homo sapiens (Human), UniProt P11802)
CDK4-cyclinD1, sequence (P11802 whole entry): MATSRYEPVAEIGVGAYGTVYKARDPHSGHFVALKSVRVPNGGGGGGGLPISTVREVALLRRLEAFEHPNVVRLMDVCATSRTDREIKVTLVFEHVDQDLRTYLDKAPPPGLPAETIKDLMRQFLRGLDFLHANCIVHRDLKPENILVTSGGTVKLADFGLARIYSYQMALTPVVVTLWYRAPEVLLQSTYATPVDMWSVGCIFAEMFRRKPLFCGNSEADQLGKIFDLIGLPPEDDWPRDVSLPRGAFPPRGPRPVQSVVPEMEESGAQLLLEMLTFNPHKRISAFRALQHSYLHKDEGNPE
CDK4-cyclinD1, sequence (P24385 whole entry partner): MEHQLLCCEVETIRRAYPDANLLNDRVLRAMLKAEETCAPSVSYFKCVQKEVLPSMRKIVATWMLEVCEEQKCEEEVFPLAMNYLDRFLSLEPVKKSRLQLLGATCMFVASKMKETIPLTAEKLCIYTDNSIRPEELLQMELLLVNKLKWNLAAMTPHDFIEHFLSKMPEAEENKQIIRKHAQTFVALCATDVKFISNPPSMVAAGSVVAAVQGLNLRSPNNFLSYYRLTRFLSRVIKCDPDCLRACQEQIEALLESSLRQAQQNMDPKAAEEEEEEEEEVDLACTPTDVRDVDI
Protocol: as §1, §2, §3

[11] = molecular target: CIT (Homo sapiens (Human), UniProt O14578)
Protocol: as §1, §2, §3

[12] = molecular target: CTK (Homo sapiens (Human), UniProt P42679)
Protocol: as §1, §2, §3

[13] = molecular target: DDR2 (Homo sapiens (Human), UniProt Q16832)
Protocol: as §1, §2, §3

[14] = molecular target: DRAK2 (Homo sapiens (Human), UniProt O94768)
Protocol: as §1, §2, §3

[15] = molecular target: EGFR (Homo sapiens (Human), UniProt P00533)
Protocol: as §1, §2, §3

[16] = molecular target: EIF2AK1 (Homo sapiens (Human), UniProt Q9BQI3)
Protocol: as §1, §2, §3

[17] = molecular target: EPHA1 (Homo sapiens (Human), UniProt P21709)
EPHA1, sequence (P21709 26-976): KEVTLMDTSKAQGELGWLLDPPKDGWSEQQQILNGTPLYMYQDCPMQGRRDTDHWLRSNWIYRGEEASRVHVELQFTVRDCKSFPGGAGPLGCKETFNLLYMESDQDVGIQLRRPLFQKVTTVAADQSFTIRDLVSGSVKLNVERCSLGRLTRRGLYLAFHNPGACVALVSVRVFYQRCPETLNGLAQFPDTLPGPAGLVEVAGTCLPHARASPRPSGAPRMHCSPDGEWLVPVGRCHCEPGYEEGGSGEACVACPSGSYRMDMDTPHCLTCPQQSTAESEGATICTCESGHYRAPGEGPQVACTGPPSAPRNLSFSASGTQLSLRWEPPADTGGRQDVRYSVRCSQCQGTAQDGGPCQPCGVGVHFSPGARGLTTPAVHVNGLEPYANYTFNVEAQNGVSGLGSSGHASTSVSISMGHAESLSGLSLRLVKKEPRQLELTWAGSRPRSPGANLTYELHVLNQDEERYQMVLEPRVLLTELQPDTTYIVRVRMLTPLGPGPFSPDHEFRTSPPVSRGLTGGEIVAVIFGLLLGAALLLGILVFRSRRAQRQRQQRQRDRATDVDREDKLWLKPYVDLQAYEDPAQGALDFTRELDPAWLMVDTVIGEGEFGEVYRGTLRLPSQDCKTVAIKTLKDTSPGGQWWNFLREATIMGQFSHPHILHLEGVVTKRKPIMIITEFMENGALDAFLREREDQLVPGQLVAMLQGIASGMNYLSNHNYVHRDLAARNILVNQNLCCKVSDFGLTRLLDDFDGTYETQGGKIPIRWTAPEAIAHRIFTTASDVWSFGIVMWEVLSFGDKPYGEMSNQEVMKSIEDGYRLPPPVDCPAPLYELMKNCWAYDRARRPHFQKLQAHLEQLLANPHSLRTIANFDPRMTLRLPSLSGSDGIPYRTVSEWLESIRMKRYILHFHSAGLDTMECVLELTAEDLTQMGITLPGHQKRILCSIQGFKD
Protocol: as §1, §2, §3

[18] = molecular target: EPHA5 (Homo sapiens (Human), UniProt P54756)
EPHA5, sequence (P54756 25-1037): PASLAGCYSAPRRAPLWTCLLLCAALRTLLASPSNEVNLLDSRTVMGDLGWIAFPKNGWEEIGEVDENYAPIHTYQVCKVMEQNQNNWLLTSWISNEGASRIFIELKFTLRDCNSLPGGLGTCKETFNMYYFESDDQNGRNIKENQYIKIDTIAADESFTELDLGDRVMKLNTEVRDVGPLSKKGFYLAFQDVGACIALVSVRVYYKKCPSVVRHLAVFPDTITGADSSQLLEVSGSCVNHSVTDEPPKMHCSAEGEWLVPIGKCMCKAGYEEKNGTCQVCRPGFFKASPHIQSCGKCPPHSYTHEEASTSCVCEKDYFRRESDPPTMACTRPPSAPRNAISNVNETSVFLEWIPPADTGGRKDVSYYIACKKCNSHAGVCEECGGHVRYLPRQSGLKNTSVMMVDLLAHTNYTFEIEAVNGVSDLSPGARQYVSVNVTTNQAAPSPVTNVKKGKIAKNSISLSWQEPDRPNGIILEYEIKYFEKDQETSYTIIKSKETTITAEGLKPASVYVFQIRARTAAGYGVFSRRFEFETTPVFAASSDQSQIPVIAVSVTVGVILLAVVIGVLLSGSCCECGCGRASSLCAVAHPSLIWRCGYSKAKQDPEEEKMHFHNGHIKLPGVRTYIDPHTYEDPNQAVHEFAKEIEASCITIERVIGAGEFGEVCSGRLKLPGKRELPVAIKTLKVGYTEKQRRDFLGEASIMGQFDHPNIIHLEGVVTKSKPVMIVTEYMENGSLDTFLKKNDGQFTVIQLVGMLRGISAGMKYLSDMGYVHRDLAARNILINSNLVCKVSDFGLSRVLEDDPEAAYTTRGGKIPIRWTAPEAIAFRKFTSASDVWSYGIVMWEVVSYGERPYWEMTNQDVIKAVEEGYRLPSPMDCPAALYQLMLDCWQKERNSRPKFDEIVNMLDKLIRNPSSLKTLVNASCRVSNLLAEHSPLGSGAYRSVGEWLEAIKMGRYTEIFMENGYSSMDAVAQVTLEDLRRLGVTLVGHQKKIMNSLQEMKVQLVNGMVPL
Protocol: as §1, §2, §3

[19] = molecular target: ERBB4 (Homo sapiens (Human), UniProt Q15303)
Protocol: as §1, §2, §3

[20] = molecular target: LIMK2 (Homo sapiens (Human), UniProt P53671)
Protocol: as §1, §2, §3

[21] = molecular target: MAP3K1 (Homo sapiens (Human), UniProt Q13233)
Protocol: as §1, §2, §3

[22] = molecular target: MAP3K4 (Homo sapiens (Human), UniProt Q9Y6R4)
Protocol: as §1, §2, §3

[23] = molecular target: MAPKAPK2 (Homo sapiens (Human), UniProt P49137)
Protocol: as §1, §2, §3

[24] = molecular target: MARK2 (Homo sapiens (Human), UniProt Q7KZI7)
Protocol: as §1, §2, §3

[25] = molecular target: MET (Homo sapiens (Human), UniProt P08581)
MET, sequence (P08581 25-1390): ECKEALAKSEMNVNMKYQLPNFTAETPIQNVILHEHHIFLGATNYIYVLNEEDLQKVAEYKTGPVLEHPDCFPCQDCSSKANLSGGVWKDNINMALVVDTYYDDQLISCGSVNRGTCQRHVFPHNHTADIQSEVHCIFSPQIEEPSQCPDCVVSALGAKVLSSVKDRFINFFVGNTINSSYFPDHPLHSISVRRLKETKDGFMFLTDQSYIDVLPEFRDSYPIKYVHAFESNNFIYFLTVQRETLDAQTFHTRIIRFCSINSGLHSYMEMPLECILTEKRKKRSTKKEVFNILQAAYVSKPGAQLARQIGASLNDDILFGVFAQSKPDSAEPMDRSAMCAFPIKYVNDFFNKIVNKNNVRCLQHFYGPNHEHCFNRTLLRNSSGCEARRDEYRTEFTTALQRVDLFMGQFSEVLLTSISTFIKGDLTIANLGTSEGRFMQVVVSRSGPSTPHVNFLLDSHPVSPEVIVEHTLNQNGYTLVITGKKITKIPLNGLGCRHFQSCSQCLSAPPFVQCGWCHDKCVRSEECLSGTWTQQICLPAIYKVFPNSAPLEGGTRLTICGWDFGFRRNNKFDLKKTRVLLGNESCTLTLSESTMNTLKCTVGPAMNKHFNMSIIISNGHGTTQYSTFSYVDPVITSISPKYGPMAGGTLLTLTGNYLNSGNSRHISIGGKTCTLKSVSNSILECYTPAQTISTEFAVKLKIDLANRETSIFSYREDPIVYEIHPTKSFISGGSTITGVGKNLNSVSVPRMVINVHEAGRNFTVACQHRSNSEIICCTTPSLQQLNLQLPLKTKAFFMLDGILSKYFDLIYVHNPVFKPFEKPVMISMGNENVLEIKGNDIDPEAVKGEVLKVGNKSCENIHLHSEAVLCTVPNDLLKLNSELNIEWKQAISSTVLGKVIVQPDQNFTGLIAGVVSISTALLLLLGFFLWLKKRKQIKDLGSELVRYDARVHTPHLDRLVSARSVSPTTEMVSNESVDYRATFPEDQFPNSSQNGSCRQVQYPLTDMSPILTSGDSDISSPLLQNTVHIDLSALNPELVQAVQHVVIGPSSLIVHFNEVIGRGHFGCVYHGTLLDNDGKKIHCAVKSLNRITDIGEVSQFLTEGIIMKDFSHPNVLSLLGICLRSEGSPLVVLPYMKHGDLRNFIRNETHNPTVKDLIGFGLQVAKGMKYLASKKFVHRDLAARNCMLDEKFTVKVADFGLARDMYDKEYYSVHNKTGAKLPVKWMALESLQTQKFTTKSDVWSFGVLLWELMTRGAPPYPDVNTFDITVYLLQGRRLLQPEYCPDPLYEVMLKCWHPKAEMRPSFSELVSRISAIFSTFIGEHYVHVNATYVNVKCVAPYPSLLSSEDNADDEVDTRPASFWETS
Protocol: as §1, §2, §3

[26] = molecular target: NEK1 (Homo sapiens (Human), UniProt Q96PY6)
Protocol: as §1, §2, §3

[27] = molecular target: NEK2 (Homo sapiens (Human), UniProt P51955)
Protocol: as §1, §2, §3

[28] = molecular target: NEK5 (Homo sapiens (Human), UniProt Q6P3R8)
Protocol: as §1, §2, §3

[29] = molecular target: PDGFRA (Homo sapiens (Human), UniProt P16234)
Protocol: as §1, §2, §3

[30] = molecular target: PIK3CA(I800L) (Homo sapiens (Human), UniProt P42336, I800L)
Protocol: as §1, §2, §3

[31] = molecular target: PIP5K2C (Homo sapiens (Human), UniProt Q8TBX8)
Protocol: as §1, §2, §3

[32] = molecular target: PRKCD (Homo sapiens (Human), UniProt Q05655)
Protocol: as §1, §2, §3

[33] = molecular target: RIOK2 (Homo sapiens (Human), UniProt Q9BVS4)
Protocol: as §1, §2, §3

[34] = molecular target: RPS6KA4(Kin.Dom.1-N-terminal) (Homo sapiens (Human), UniProt O75676)
Protocol: as §1, §2, §3

[35] = molecular target: SGK3 (Homo sapiens (Human), UniProt Q96BR1)
Protocol: as §1, §2, §3

[36] = molecular target: TRKA (Homo sapiens (Human), UniProt P04629)
Protocol: as §1, §2, §3

[37] = molecular target: TSSK1B (Homo sapiens (Human), UniProt Q9BXA7)
Protocol: as §1, §2, §3

[38] = molecular target: YANK2 (Homo sapiens (Human), UniProt Q9NY57)
Protocol: as §1, §2, §3

[39] = molecular target: ZAP70 (Homo sapiens (Human), UniProt P43403)
Protocol: as §1, §2, §3

SMILES	remaining binding at 1 µM [1]	remaining binding at 1 µM [2]	remaining binding at 1 µM [3]	remaining binding at 1 µM [4]	remaining binding at 1 µM [5]	remaining binding at 1 µM [6]	remaining binding at 1 µM [7]	remaining binding at 1 µM [8]	remaining binding at 1 µM [9]	remaining binding at 1 µM [10]	remaining binding at 1 µM [11]	remaining binding at 1 µM [12]	remaining binding at 1 µM [13]	remaining binding at 1 µM [14]	remaining binding at 1 µM [15]	remaining binding at 1 µM [16]	remaining binding at 1 µM [17]	remaining binding at 1 µM [18]	remaining binding at 1 µM [19]	remaining binding at 1 µM [20]	further results
CCNc1cc(Nc2ccc(C(=O)N3CCC(N4CCOCC4)CC3)cc2OC)nc2[nH]cc(C#N)c12 [Example 18, 4-(ethylamino)-6-((2-methoxy-4-(4-morpholinopiperidine-1-carbonyl)phenyl)amino)-1H-pyrrolo[2,3-b]pyridine-3-carbonitrile]	77%	95%	100%	93%	88%	85%	44%	73%	52%	100%	71%	100%	98%	27%	100%	92%	91%	99%	85%	90%	remaining binding at 1 µM [21]: 90%; remaining binding at 1 µM [22]: 96%; remaining binding at 1 µM [23]: 21%; remaining binding at 1 µM [24]: 89%; remaining binding at 1 µM [25]: 100%; remaining binding at 1 µM [26]: 100%; remaining binding at 1 µM [27]: 100%; remaining binding at 1 µM [28]: 92%; remaining binding at 1 µM [29]: 77%; remaining binding at 1 µM [30]: 100%; remaining binding at 1 µM [31]: 16%; remaining binding at 1 µM [32]: 75%; remaining binding at 1 µM [33]: 63%; remaining binding at 1 µM [34]: 100%; remaining binding at 1 µM [35]: 79%; remaining binding at 1 µM [36]: 86%; remaining binding at 1 µM [37]: 34%; remaining binding at 1 µM [38]: 100%; remaining binding at 1 µM [39]: 38%
CCNc1cc(Nc2ccc(C(=O)N3CCC(N4CCOCC4)CC3)cc2OC)nc2[nH]cc(C(F)(F)F)c12 [Example 57, (4-((4-(ethylamino)-3-(trifluoromethyl)-1H-pyrrolo[2,3-b]pyridin-6-yl)amino)-3-methoxyphenyl) (4-morpholinopiperidin-1-yl)methanone]	84%	86%	98%	98%	82%	100%	84%	80%	49%	95%	66%	84%	91%	69%	59%	99%	78%	85%	82%	99%	remaining binding at 1 µM [21]: 79%; remaining binding at 1 µM [22]: 79%; remaining binding at 1 µM [23]: 51%; remaining binding at 1 µM [24]: 93%; remaining binding at 1 µM [25]: 100%; remaining binding at 1 µM [26]: 81%; remaining binding at 1 µM [27]: 94%; remaining binding at 1 µM [28]: 91%; remaining binding at 1 µM [29]: 100%; remaining binding at 1 µM [30]: 69%; remaining binding at 1 µM [31]: 71%; remaining binding at 1 µM [32]: 87%; remaining binding at 1 µM [33]: 100%; remaining binding at 1 µM [34]: 100%; remaining binding at 1 µM [35]: 100%; remaining binding at 1 µM [36]: 100%; remaining binding at 1 µM [37]: 53%; remaining binding at 1 µM [38]: 94%; remaining binding at 1 µM [39]: 100%
